The results in this text go back to US8999358B2, “Aqueous insecticidal compositions and the use thereof for protecting lignocellulose-containing materials” (BASF Aktiengesellschaft, priority 2005, dated 2015).

The test system of the experiment is wood-destroying soil-dwelling termites (Reticulitermes santonensis). Description: Laboratory termite resistance test of treated wood specimens (AWPA E1-97) after leaching according to DIN EN 84. The class given is in vivo. The settings on record: Test termite R. santonensis; Pinus spp. (Southern Yellow Pine) specimens 25x25x6 mm^3; AWPA E1-97, 4 weeks; α-cypermethrin concentration in wood giving score 10 to 9. As to the method:
The aqueous active ingredient composition according to the invention of Example 3 was diluted with water to three different active ingredient concentrations. For comparison purposes, the anionic dispersion D6, which is not in accordance with the invention, was studied, and α-cypermethrin was dissolved in acetone, and the solution was diluted with further acetone to give the active ingredient concentrations in question.
To determine the limits of the efficacy of the composition according to the invention with regard to wood-destroying soil-dwelling termites (Reticulitermes santonensis), wood specimens of Pinus spp. with the dimensions 25×25×6 mm^3 (Southern Yellow Pine) were tested in accordance with the American test standard AWPA E1-97 (see, in this context, “Standard method for laboratory evaluation to determine resistance to subterranean termites”, American Wood-Preservers' Association, 2001) under constrained experimental conditions after leaching according to DIN EN 84: 1997-01 (see, in this context, “accelerated aging of treated timber before biological tests”, European standardization committee).
The destruction of the timber caused by attack by the termites was registered after 4 weeks of testing by visually scoring the timber specimens as specified in AWPA E1-97. In addition, the mortality rate among the termites was estimated. […]

As to `CC1(C)C(C=C(Cl)Cl)C1C(=O)OC(C#N)c1cccc(Oc2ccccc2)c1` (stereo not drawn) [Solution of α-cypermethrin, α-cypermethrin], the “Limits of the efficacy after leaching (EN 84)” value is on record as 29-40 g/m^3.
